Values of other authors as cited in patent US7105176B2, “Production of solid preparations of water-soluble, sparingly water-soluble or water-insoluble active compounds” (BASF Aktiengesellschaft, priority 2000, dated 2006).

Conditions: at 314 nm

extinction coefficient: > 1500
Compound: CCCCC(CC)COC(=O)c1ccc(Nc2nc(Nc3ccc(C(=O)OCC(CC)CCCC)cc3)nc(Nc3ccc(C(=O)OCC(CC)CCCC)cc3)n2)cc1 (stereo not shown) [Uvinul® T150, 2,4,6-trianilino-p-(carbo-2′-ethylhexyl-1′-oxy)-1,3,5-triazine]
